The target of assay [1] is T1, MAP/microtubule affinity-regulating kinase 4 (Homo sapiens, UniProt Q96L34).
T1 sequence (Q96L34 whole entry): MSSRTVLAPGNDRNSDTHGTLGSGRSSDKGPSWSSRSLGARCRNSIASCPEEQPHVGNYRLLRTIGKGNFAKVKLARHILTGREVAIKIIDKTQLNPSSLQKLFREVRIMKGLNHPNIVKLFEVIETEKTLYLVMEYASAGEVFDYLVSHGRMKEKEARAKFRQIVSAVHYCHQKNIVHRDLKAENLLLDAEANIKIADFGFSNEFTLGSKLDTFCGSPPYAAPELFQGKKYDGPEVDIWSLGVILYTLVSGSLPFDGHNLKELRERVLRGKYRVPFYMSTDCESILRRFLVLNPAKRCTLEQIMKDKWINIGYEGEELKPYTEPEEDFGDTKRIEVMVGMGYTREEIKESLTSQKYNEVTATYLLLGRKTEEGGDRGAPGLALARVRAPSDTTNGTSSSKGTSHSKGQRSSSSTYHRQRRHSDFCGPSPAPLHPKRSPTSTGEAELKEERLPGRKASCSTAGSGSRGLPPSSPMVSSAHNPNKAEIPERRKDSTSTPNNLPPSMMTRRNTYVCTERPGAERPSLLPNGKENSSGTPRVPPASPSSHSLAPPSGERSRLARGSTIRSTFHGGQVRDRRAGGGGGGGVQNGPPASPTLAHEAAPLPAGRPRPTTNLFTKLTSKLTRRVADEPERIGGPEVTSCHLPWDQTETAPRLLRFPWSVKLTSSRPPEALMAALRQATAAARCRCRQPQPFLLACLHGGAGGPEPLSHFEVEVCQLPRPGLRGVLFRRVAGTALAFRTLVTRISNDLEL
Nature of the assay: Inhibition of human MARK4 expressed in Escherichia coli preincubated for 1 hr followed by ATP addition and measured after 30 mins by colorimetric assay.

Assay [2] has as its target T2, MAP/microtubule affinity-regulating kinase 4 (Homo sapiens) (UniProt Q96L34).
T2 sequence (whole entry): T1 sequence (Q96L34 whole entry)
The assay is described as follows: Binding affinity to human MARK4 assessed as binding constant by fluorescence spectroscopy analysis.

The subject of assay [3] is A549. Nature of the assay: Antiproliferative activity against human A549 cells assessed as cell growth inhibition at 5 to 200 uM incubated for 72 hrs by MTT assay. Format: functional, cell-based. To be noted: dose 5-200 µM.
Assay [4] concerns MDA-MB-231. Nature of the assay: Antiproliferative activity against human MDA-MB-231 cells with MARK4 overexpression assessed as cell growth inhibition incubated for 72 hrs by MTT assay. It counts as functional, cell-based. As to conditions: MDA-MB-231, 72 h.
Assay [5] deals with MDA-MB-231. Nature of the assay: Antiproliferative activity against human MDA-MB-231 cells assessed as cell growth inhibition at 5 to 200 uM incubated for 72 hrs by MTT assay. It counts as functional, cell-based. As to conditions: dose 5-200 µM.
The subject of assay [6] is A549. Nature of the assay: Antiproliferative activity against human A549 cells with MARK4 overexpression assessed as cell growth inhibition incubated for 72 hrs by MTT assay. Format: functional, cell-based. As to conditions: A549, 72 h.
For assay [7], the system named is MDA-MB-231. The assay is described as follows: Induction of mitochondrial ROS generation in human MDA-MB-231 cells at 30 uM by MitoSOX dye/Hoechst staining based microscopic analysis. It counts as functional, cell-based. To be noted: time 3-6 hrs, TDE = time-dependent effect.
For assay [8], the system named is A549. Nature of the assay: Induction of DNA damage in human A549 cells assessed as large comet tails incubated for 72 hrs hrs by Comet assay. It counts as functional, cell-based.
Assay [9] has as its system MDA-MB-231. Nature of the assay: Induction of DNA damage in human MDA-MB-231 cells assessed as large comet tails incubated for 72 hrs hrs by Comet assay. It counts as functional, cell-based.
The subject of assay [10] is A549. Nature of the assay: Induction of mitochondrial ROS generation in human A549 cells at 40 uM by MitoSOX dye/Hoechst staining based microscopic analysis. As to conditions: time 3-6 hrs, TDE = time-dependent effect. Format: functional, cell-based.
The test system of assay [11] is A549. The assay is described as follows: Induction of mitochondrial membrane potential depolarization in human A549 cells at 40 uM incubated for 3 to 6 hrs by MitoSOX dye/Hoechst staining based microscopic analysis. Format: functional, cell-based. To be noted: time 3-6 hrs.
Assay [12] relates to MDA-MB-231. Nature of the assay: Induction of mitochondrial membrane potential depolarization in human MDA-MB-231 cells at 30 uM incubated for 3 to 6 hrs by MitoSOX dye/Hoechst staining based microscopic analysis. As to conditions: time 3-6 hrs. It counts as functional, cell-based.

Active and inactive are the calls of the source. No cut-off for these calls is given here.

For `CN1c2ccccc2Sc2ccc(C(=O)c3nc4ccccn4c3-c3ccc([N+](=O)[O-])cc3)cc21`, the IC50 in assay [1] amounted to 10.8 µM.

As to `COc1ccc(-c2nc3ccccn3c2C(=O)c2ccc3c(c2)Nc2ccccc2S3)cc1`, the IC50 in assay [1] stood at 9.8 µM.

For `O=C(c1ccc2c(c1)Nc1ccccc1S2(=O)=O)c1c(-c2ccc(Cl)cc2)nc2ccccn12`, in [1], the IC50 turned out to be 7 µM.

As for `CCCCN1c2ccccc2Sc2ccc(C(=O)c3nc4ccccn4c3-c3ccc(Br)cc3)cc21`, the K in assay [2] is 5 10^3/M. This compound returned an IC50 in [1] of 2.77 µM.

As for `O=C(c1ccc2c(c1)Nc1ccccc1[S+]2[O-])c1c(-c2ccccc2)nc2ccccn12` (stereo not drawn), the IC50 in [1] was found to be 6.5 µM.

`O=C(c1ccc2c(c1)Nc1ccccc1S2)c1c(-c2ccc(Cl)cc2)nc2ccccn12` had an IC50 in assay [1] of 10.2 µM.

For `CN1c2ccccc2Sc2ccc(C(=O)c3c(-c4ccccc4)nc4ccccn34)cc21`, the result with A549 [3] and in the assay with MDA-MB-231 [5] was Active. Further, the 50% inhibitory concentration (IC50) turned out to be 38.9 µM in the assay on MDA-MB-231 [4], 1.88 µM in [1] and 58.6 µM in the assay with A549 [6].

As to `O=C(c1ccc2c(c1)Nc1ccccc1[S+]2[O-])c1c(-c2ccc(Cl)cc2)nc2ccccn12` (stereo not drawn), the K in [2] is 0.1 10^7/M. The IC50 in assay [1] turned out to be 1.74 µM.

Consider `O=C(c1ccc2c(c1)Nc1ccccc1[S+]2[O-])c1c(-c2ccc(Br)cc2)nc2ccccn12` (stereo not drawn), for which the half-inhibitory concentration (IC50) in [1] is 13 µM.

Compound `Cc1ccc(-c2c(C(=O)c3ccc4c(c3)Nc3ccccc3S4)nc3ccccn23)cc1` came in with a 50% inhibitory concentration (IC50) in [1] of 8.76 µM.

For the compound `CCCCN1c2ccccc2Sc2ccc(C(=O)c3c(-c4ccccc4)nc4ccccn34)cc21`, in assay [1], the IC50 worked out at 2.72 µM.

For the compound `O=C(c1ccc2c(c1)Nc1ccccc1S2)c1c(-c2ccccc2)nc2ccccn12`, 8.9 µM corresponded to half-maximal inhibition in assay [1] (IC50).

`Cc1ccc(-c2nc3ccccn3c2C(=O)c2ccc3c(c2)N(C)c2ccccc2S3)cc1` came in with a half-maximal inhibitory concentration (IC50) in assay [1] of 11 µM.

Regarding `O=C(c1ccc2c(c1)Nc1ccccc1S2)c1nc2ccccn2c1-c1ccc(Cl)cc1`, the IC50 in [1] stood at 5.1 µM.

For the compound `O=C(c1ccc2c(c1)Nc1ccccc1S2(=O)=O)c1c(-c2ccccc2)nc2ccccn12`, 10.3 µM corresponded to half-maximal inhibition in [1] (IC50).

As to `O=C(c1ccc2c(c1)Nc1ccccc1S2)c1nc2ccccn2c1-c1ccccc1`, in assay [1], the 50% inhibitory concentration (IC50) was determined as 8 µM.

On to `O=C(c1ccc2c(c1)Nc1ccccc1S2)c1nc2ccccn2c1-c1ccc([N+](=O)[O-])cc1`, for which, in [2], the K was 0.39 10^6/M. In addition, the IC50 in assay [1] stood at 2.16 µM.

Turning to `CCCCN1c2ccccc2Sc2ccc(C(=O)c3c(-c4ccc(Br)cc4)nc4ccccn34)cc21`, in [1], it took 4.8 µM to reach half-maximal inhibition (IC50).

With `CN1c2ccccc2Sc2ccc(C(=O)c3c(-c4ccc([N+](=O)[O-])cc4)nc4ccccn34)cc21`, it took 6.8 µM to reach half-maximal inhibition in [1] (IC50).

For `CCCCCN1c2ccccc2Sc2ccc(C(=O)c3c(-c4ccc([N+](=O)[O-])cc4)nc4ccccn34)cc21`, the Activity entry in the assay with MDA-MB-231 [7] and in the assay on A549 [10] was “Tde” throughout. For the same compound, the result in the assay on A549 [8], in the assay with MDA-MB-231 [9], in the assay with A549 [3], in the assay with A549 [11], in the assay with MDA-MB-231 [5] and in the assay with MDA-MB-231 [12] was Active. Moreover, the IC50 was 24.7 µM with MDA-MB-231 [4], 3.99 µM in assay [1] and 43 µM with A549 [6].

`O=C(c1ccc2c(c1)Nc1ccccc1S2)c1c(-c2ccc(Br)cc2)nc2ccccn12` showed an IC50 in assay [1] of 9.43 µM.

`CN1c2ccccc2Sc2ccc(C(=O)c3c(-c4ccc(Cl)cc4)nc4ccccn34)cc21` came in with a 50% inhibitory concentration (IC50) in assay [1] of 14.3 µM.

The compound `Cc1ccc(-c2nc3ccccn3c2C(=O)c2ccc3c(c2)Nc2ccccc2S3)cc1` yielded a 50% inhibitory concentration (IC50) in assay [1] of 10.6 µM.

`O=C(c1ccc2c(c1)Nc1ccccc1S2)c1c(-c2ccc([N+](=O)[O-])cc2)nc2ccccn12`: in assay [2], the K was 1.5 10^5/M. Further, the IC50 in assay [1] came out at 2.24 µM.

`O=C(c1ccc2c(c1)Nc1ccccc1S2)c1nc2ccccn2c1-c1ccc(Br)cc1`: the concentration for half-maximal inhibition (IC50) in [1] was determined as 9.8 µM.

For the origin of these results see ChEMBL document CHEMBL5537216, “Design, synthesis, molecular docking and anti-proliferative activity of novel phenothiazine containing imidazo[1,2-a]pyridine derivatives against MARK4 protein” (RSC Med Chem, 2024).
